Results from patent US20020022652A1, “Methylnogarol compositions and uses thereof” (priority 2000, published 2002).
Read-outs that look alike come from different tables or passages of the source.

System: murine fibrosarcomas (RIF−1 cells)
Type: in vivo
Conditions: for Mean TVQT (± SE): RIF-1 tumors in C3H mice, paclitaxel 10 mg/kg, camptothecin 6 mg/kg, combinations with second agent 30 min after menogaril; for Mean TVQT (± SE) / Mean TVQT ± S.E.: menogaril 50 mg/kg; for Delay: median TVQT of treated group minus median of control; for Delay / TVQT/CTVQT / Median (TVQT): same doses; for Mean TVQT ± S.E.: RIF-1 tumors in female C3H mice, single i.p. injection, cisplatin 4 mg/kg, combination with cisplatin 30 min after menogaril, 4 mice per group
Experimental: Transplantable experimental murine fibrosarcomas (2×10^5 RIF−1 cells) were grown intradermally in the flanks of 3 month old female C3H mice (Charles River, Holister, Calif.). When the tumors reached a volume of approximately 100 mm^3, the mice were randomly assigned to each experimental group (4 mice per group).
The chemopotentiator, menogaril, was obtained from NCI and was made to the appropriate concentration in DMSO. Cisplatin (David Bull Laboratories- Mulgrave, Australia, lot. 5201844x) was made to the appropriate concentration in water for injection. The compositions were injected systemically (i.e., intraperitoneally, i.p.), in a volume of 100 microliters. For the treatment of group 3, the chemopotentiator, menogaril, was injected 30 minutes prior to the injection of cisplatin. After treatment, the growth of the tumors was monitored three times per week by caliper measurements of three perpendicular diameters of the tumor and calculation of tumor volume from the formula: […]
The tumors were followed until they reached a size of four times their day zero treatment volume (TVQT), or up to 30 days after treatment, whichever came first. The data is expressed as the “tumor volume quadrupling time” (TVQT) mean and as the “delay.” Mean TVQT is the mean days required for individual tumors to grow to four times the tumor volume at the initial treatment day. The “delay” is the median of days required for a tumor to grow to four times the mean size of the treated group, minus the median of days required to grow to four times the mean size of the control group. The data is also expressed as the ratio of the tumor volume quadrupling time of the treated tumor over the untreated control group (TVQT/CTVQT). Increasing values of this ratio indicate increased antitumor response.
The ability of menogaril to enhance the effect of camptothecin or paclitaxel was also studied, using the same methods described in Example 1. […] For each injection, 100 microliters was injected.

[1] = Example 2, Table 4, ratio of treated group over untreated control, IP
[2] = Example 1, Table 3, ratio of TVQT of treated group over untreated control, i.p.

With `CC(=O)O[C@H]1C(=O)[C@@]2(C)[C@H]([C@H](OC(=O)c3ccccc3)[C@]3(O)C[C@H](OC(=O)[C@H](O)[C@@H](NC(=O)c4ccccc4)c4ccccc4)C(C)=C1C3(C)C)[C@]1(OC(C)=O)CO[C@@H]1C[C@@H]2O` [Paclitaxel, paclitaxel] the “Mean TVQT (± SE)” value (Example 2, Table 4, IP) was 9.0 ± 0.4 days, the Delay (Example 2, Table 4, IP) was 0.36 and the TVQT/CTVQT [1] was 1.0. The “Median (TVQT)” value (Example 2, Table 4, IP) was 8.7 days.

For `N.N.[Cl][Pt][Cl]` [Cisplatin, cis-diamminedichloroplatinum II], the “Mean TVQT ± S.E.” value (Example 1, Table 3) was 8.4 ± 0.3 days, the “Delay” value (Example 1, Table 3, i.p.) was 2.10 days and the TVQT/CTVQT [2] was 1.3. For the same compound, the “Median (TVQT)” value (Example 1, Table 3, i.p.) was 8.1 days.

For `CC[C@@]1(O)C(=O)OCc2c1cc1n(c2=O)Cc2cc3ccccc3nc2-1` [Camptothecin, camptothecin], the “Mean TVQT (± SE)” value (Example 2, Table 4, IP) was 9.9 ± 0.5 days, the Delay (Example 2, Table 4, IP) was 1.44 and the TVQT/CTVQT [1] was 1.1. For the same compound, the “Median (TVQT)” value (Example 2, Table 4, IP) was 9.8 days.

`CO[C@@H]1C[C@](C)(O)Cc2cc3c(c(O)c21)C(=O)c1c(O)cc2c(c1C3=O)O[C@@H]1O[C@@]2(C)[C@H](O)[C@@H](N(C)C)[C@@H]1O` [Menogaril, 2,6-Epoxy-2H-naphthaceno[1,2-b]oxocin-9,16-dione, 4-(dimethylamino)-3,4,5,6,11,12,13,14-octahydro-3,5,8,10,13-pentahydroxy-11-methoxy-6,13-dimethyl-,(2alpha,3beta,4alpha,5beta,6alpha, 11 alpha, 13alpha)-, (P)-] was tested, and the “Mean TVQT ± S.E.” value (Example 1, Table 3) was 9.1 ± 0.5 days, the “Delay” value (Example 1, Table 3, i.p.) was 3.31 days and the TVQT/CTVQT [2] was 1.4. The “Median (TVQT)” value (Example 1, Table 3, i.p.) was 9.4 days, the “Mean TVQT (± SE)” value (Example 2, Table 4, IP) was 10.2 ± 0.8 days and the Delay (Example 2, Table 4, IP) was 1.84. For the same compound, the TVQT/CTVQT [1] was 1.2 and the “Median (TVQT)” value (Example 2, Table 4, IP) was 10.2 days.
